Assay results taken from patent publication US9663508B2, “Biaryl acyl-sulfonamide compounds as sodium channel inhibitors” (AMGEN INC., priority 2013, dated 2017).
Where two headings read alike, the source gives them in different places.

Legend:
human Nav 1.5 = human Nav 1.5 (Homo sapiens (Human), UniProt Q14524); assay: Nav 1.5 IonWorks Quattro (IWQ) in vitro assay; type: cell-based
Procedure: Nav 1.7 or Nav 1.5 Ion Works Quattro (IWQ) In Vitro Assay
HEK 293 Cells stably transfected with either human Nay 1.7 or human Nay 1.5 were recorded in population patch-clamp mode with the IonWorks® Quattro automated electrophysiology system in accordance with the manufacturer's specifications (Molecular Devices, LLC, Sunnyvale, Calif.). Sodium channel currents were measured in response to a train of depolarizations that induced successively greater inactivation.
Cells were held at −110 mV for three seconds (Nav 1.7) or half a second (Nav 1.5) from a holding voltage of −15 mV, then put through a series of 26 pulses of 150 msec duration to −20 mV at a frequency of 5 Hz. Cells were then left unclamped for a period of 3 to 8 minutes while a single concentration of test compound was added. Cells were then reclamped and put through the same voltage protocol. Current at the end of the 26th pulse to −20 mV was subtracted from the peak current evoked by the 26th pulse to −20 mV to correct for leak current. Percent block was calculated for each concentration in duplicate, and IC50 curves were fitted to percent block as a function of concentration.

human Nav1.7 = human Nav1.7 (Homo sapiens (Human), UniProt Q15858); assay: Nav 1.7 in vitro PatchXpress (PX) assay; type: cell-based
[1] = in-vitro Nav 1.5 IWQ data, read-out: NAV 1.5 IWQ (IC50)

Chain of human Nav 1.5 (Q14524 whole entry): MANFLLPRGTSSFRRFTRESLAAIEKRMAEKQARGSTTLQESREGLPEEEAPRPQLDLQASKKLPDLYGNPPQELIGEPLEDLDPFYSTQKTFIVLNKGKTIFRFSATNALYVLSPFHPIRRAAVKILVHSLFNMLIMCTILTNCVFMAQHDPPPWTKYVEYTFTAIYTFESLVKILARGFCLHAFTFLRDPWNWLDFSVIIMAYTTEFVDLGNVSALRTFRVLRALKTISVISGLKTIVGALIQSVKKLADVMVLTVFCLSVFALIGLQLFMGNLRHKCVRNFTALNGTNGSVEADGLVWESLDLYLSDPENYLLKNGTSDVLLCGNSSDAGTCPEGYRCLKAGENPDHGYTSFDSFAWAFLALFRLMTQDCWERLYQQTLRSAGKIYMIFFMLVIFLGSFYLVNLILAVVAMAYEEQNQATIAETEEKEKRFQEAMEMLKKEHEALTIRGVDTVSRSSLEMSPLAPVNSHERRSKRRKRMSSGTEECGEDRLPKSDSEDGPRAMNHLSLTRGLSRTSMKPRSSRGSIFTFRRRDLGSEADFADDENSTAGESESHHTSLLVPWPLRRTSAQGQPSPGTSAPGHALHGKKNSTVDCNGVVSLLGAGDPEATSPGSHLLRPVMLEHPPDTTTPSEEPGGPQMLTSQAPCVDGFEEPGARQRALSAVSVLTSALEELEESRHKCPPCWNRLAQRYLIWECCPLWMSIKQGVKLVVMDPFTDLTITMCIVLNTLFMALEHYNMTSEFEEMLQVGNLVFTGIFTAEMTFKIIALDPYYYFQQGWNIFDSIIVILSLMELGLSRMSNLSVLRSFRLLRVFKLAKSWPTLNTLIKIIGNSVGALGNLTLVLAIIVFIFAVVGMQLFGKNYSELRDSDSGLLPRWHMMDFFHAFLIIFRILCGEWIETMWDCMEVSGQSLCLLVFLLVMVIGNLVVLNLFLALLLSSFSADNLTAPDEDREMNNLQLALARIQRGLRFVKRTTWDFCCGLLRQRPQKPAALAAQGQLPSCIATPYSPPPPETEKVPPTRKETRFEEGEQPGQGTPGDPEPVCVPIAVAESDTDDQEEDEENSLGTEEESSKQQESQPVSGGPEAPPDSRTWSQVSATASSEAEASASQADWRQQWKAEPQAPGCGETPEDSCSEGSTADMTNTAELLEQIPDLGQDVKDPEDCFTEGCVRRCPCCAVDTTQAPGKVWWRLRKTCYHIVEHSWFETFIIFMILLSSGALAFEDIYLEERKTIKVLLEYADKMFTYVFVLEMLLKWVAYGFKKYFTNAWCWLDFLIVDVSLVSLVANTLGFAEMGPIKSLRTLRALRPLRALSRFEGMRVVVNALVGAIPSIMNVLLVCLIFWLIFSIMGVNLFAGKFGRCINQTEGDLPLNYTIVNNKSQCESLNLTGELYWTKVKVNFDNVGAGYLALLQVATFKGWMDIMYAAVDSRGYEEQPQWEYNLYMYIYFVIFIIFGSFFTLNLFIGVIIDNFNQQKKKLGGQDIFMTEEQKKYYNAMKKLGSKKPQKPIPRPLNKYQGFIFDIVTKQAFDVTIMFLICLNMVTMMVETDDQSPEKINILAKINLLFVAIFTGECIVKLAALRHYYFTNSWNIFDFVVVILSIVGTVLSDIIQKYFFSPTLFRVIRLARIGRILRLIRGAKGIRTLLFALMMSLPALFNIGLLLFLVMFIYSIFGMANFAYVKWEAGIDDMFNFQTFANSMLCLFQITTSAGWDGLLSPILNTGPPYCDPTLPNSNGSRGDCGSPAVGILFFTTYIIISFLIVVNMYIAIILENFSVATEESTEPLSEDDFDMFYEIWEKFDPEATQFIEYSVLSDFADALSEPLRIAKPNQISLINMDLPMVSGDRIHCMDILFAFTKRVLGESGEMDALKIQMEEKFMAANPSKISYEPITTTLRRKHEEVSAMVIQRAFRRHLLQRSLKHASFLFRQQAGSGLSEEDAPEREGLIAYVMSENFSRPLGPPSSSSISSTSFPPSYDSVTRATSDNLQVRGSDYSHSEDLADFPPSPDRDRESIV
Chain of human Nav1.7 (Q15858 whole entry): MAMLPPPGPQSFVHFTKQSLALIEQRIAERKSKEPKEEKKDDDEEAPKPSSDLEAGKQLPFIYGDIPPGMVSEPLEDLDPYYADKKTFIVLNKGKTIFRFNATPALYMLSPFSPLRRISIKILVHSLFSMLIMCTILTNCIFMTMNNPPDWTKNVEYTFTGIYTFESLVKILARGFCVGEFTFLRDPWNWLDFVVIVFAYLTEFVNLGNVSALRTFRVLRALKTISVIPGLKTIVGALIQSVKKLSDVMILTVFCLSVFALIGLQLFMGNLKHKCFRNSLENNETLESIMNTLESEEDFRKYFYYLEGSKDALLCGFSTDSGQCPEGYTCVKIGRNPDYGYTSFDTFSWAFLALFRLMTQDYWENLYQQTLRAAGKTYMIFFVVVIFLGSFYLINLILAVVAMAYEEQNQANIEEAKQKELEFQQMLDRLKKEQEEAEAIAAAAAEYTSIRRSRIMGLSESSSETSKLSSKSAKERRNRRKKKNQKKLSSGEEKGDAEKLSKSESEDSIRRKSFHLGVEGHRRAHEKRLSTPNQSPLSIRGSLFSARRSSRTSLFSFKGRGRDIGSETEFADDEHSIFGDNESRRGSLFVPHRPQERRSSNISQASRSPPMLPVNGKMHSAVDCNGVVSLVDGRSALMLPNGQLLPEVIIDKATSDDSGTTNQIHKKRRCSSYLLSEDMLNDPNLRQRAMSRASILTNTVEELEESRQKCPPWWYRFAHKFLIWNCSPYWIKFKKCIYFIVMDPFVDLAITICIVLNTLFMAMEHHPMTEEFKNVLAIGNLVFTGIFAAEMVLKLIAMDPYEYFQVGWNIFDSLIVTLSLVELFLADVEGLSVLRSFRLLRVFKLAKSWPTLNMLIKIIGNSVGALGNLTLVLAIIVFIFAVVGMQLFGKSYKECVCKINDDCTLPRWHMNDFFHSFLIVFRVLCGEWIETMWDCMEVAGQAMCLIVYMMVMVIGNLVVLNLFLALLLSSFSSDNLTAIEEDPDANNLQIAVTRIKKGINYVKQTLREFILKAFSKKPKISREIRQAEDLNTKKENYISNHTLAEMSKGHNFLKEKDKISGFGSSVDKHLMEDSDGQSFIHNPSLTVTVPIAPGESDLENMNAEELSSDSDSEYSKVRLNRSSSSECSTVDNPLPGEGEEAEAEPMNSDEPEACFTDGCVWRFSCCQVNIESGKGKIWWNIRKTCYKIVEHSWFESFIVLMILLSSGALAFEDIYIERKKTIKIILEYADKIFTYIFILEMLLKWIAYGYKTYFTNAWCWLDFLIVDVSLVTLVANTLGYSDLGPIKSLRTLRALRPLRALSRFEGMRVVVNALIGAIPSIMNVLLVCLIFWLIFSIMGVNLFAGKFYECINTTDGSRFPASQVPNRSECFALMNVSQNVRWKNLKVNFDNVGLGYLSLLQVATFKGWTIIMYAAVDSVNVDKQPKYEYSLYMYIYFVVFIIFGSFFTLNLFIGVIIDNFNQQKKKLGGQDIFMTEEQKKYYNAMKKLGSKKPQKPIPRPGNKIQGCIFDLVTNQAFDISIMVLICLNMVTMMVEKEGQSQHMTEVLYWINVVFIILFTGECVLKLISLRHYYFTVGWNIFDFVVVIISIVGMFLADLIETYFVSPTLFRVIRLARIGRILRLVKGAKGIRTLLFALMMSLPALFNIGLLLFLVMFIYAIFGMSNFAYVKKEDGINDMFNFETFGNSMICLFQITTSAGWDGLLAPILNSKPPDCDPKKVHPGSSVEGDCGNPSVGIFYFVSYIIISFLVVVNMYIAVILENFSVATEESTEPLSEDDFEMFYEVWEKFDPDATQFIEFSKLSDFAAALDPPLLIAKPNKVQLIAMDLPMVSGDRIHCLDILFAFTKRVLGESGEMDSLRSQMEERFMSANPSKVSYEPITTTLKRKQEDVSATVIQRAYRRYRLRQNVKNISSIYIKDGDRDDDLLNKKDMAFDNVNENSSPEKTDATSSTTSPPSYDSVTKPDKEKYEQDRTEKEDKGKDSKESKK

| Compound | IC50 (human Nav 1.5; read-out: NAV 1.5 IWQ IC50) | IC50 (human Nav1.7) | IC50 (human Nav 1.5; [1]) | IC50 (human Nav1.7; in-vitro Nav 1.7 PX data) |
| --- | --- | --- | --- | --- |
| Cc1cc(C(=O)NS(C)(=O)=O)c(F)cc1-c1cnc(Oc2c(F)cc(F)cc2Cl)c(Cl)c1 [Example 666, 4-(5-chloro-6-(2-chloro-4,6-difluorophenoxy)-3-pyridinyl)-2-fluoro-5-methyl-N-(methylsulfonyl)benzamide] | 3410 nM | 49.7 nM |  |  |
| COc1cc(C(=O)NS(C)(=O)=O)ccc1-c1cnc(Oc2cc(Cl)cc(Cl)c2)c(C)c1 [Example 841, 4-(6-(3,5-Dichlorophenoxy)-5-Methyl-3-Pyridinyl)-3-Methoxy-N-(Methylsulfonyl)Benzamide] |  |  | > 3000 nM | 82.8 nM |
| CS(=O)(=O)NC(=O)c1cc(Cl)c(-c2cnc(Oc3c(Cl)cccc3Cl)c(Cl)c2)cc1F [Example 592, 5-chloro-4-(5-chloro-6-(2,6-dichlorophenoxy)-3-pyridinyl)-2-fluoro-N-(methylsulfonyl)benzamide] | > 3000 nM | 66.1 nM |  |  |
| Cc1cc(C(=O)NS(=O)(=O)c2nccs2)c(F)cc1-c1cnc(Oc2c(C)cc(Cl)cc2Cl)c(Cl)c1 [Example 799, 4-(5-chloro-6-(2,4-dichloro-6-methylphenoxy)-3-pyridinyl)-2-fluoro-5-methyl-N-(1,3-thiazol-2-ylsulfonyl)benzamide] |  |  | 669 nM | 23.1 nM |
| COc1cc(C(=O)NS(C)(=O)=O)c(F)cc1-c1cnc(OCc2nc3ccccc3s2)c(Cl)c1 [Example 708, 4-(6-(1,3-benzothiazol-2-ylmethoxy)-5-chloro-3-pyridinyl)-2-fluoro-5-methoxy-N-(methylsulfonyl)benzamide] |  |  | > 3000 nM | 32.6 nM |
| Cc1cc(C(=O)NS(C)(=O)=O)c(F)cc1-c1cnc(O[C@H]2C[C@H]3CC[C@@H]2C3)c(Cl)c1 [Example 635, 4-(6-((1R,2S,4S)-bicyclo[2.2.1]hept-2-yloxy)-5-chloro-3-pyridinyl)-2-fluoro-5-methyl-N-(methylsulfonyl)benzamide] | > 3000 nM | 80.9 nM |  |  |
| Cc1cc(C(=O)NS(C)(=O)=O)c(F)cc1-c1cnc(Oc2ccc(Br)cc2)c(Cl)c1 [Example 609, 4-(6-(4-bromophenoxy)-5-chloro-3-pyridinyl)-2-fluoro-5-methyl-N-(methylsulfonyl)benzamide] | > 3000 nM | 77.4 nM |  |  |
| Cc1cc(C(=O)NS(C)(=O)=O)c(F)cc1-c1cnc(Oc2cccc(C)c2F)c(Cl)c1 [Example 618, 4-(5-chloro-6-(2-fluoro-3-methylphenoxy)-3-pyridinyl)-2-fluoro-5-methyl-N-(methylsulfonyl)benzamide] | > 3000 nM | 95 nM |  |  |
| Cc1cc(C(=O)NS(C)(=O)=O)c(F)cc1-c1cnc(Oc2ccc(Cl)c(Cl)c2)c(Cl)c1 [Example 664, 4-(5-chloro-6-(3,4-dichlorophenoxy)-3-pyridinyl)-2-fluoro-5-methyl-N-(methylsulfonyl)benzamide] | > 10000 nM | 80.6 nM |  |  |
| Cc1cc(C(=O)NS(C)(=O)=O)c(F)cc1-c1cnc(O[C@@H](C)c2nc3ccccc3s2)c(Cl)c1 [Example 710, 4-(6-((1S)-1-(1,3-benzothiazol-2-yl)ethoxy)-5-chloro-3-pyridinyl)-2-fluoro-5-methyl-N-(methylsulfonyl)benzamide] |  |  | > 3000 nM | 87.3 nM |
| COc1cc(C(=O)NS(C)(=O)=O)c(F)cc1-c1cnc(Oc2cc(F)cc(F)c2F)c(Cl)c1 [Example 700, 4-(5-chloro-6-(2,3,5-trifluorophenoxy)-3-pyridinyl)-2-fluoro-5-methoxy-N-(methylsulfonyl)benzamide] | > 3000 nM | 91.3 nM |  |  |
| COc1cc(C(=O)NS(C)(=O)=O)ccc1-c1cnc(COc2ccc(Cl)c(Cl)c2)c(Cl)c1 [Example 774, 4-(5-Chloro-6-((3,4-Dichlorophenoxy)-Methyl)Pyridin-3-yl)-3-Methoxy-N-(Methylsulfonyl)Benzamide] |  |  | > 3000 nM | 80.1 nM |
| COc1ccccc1C[C@@H](C)Oc1ncc(-c2cc(F)c(C(=O)NS(C)(=O)=O)cc2C)cc1Cl [Example 649, 4-(5-chloro-6-((1R)-2-(2-methoxyphenyl)-1-methylethoxy)-3-pyridinyl)-2-fluoro-5-methyl-N-(methylsulfonyl)benzamide, 4-(5-chloro-6-((1S)-2-(2-methoxyphenyl)-1-methylethoxy)-3-pyridinyl)-2-fluoro-5-methyl-N-(methylsulfonyl)benzamide] | > 3000 nM | 92.9 nM |  |  |
| Cc1cc(C(=O)NS(C)(=O)=O)c(F)cc1-c1cnc(Oc2cc(F)c(Br)cc2Cl)c(Cl)c1 [Example 606, 4-(6-(4-bromo-2-chloro-5-fluorophenoxy)-5-chloro-3-pyridinyl)-2-fluoro-5-methyl-N-(methylsulfonyl)benzamide] | > 3000 nM | 71.7 nM |  |  |
| CS(=O)(=O)NC(=O)c1cc(Cl)c(-c2cnc(Oc3cc(F)cc(F)c3Cl)c(Cl)c2)cc1F [Example 599, 5-chloro-4-(5-chloro-6-(2-chloro-3,5-difluorophenoxy)-3-pyridinyl)-2-fluoro-N-(methylsulfonyl)benzamide] | > 3000 nM | 62.7 nM |  |  |
| COc1cc(C(=O)NS(C)(=O)=O)c(F)cc1-c1cnc(OCc2nc3ccccc3s2)c(Cl)c1 [Example 709, 4-(6-(1,3-benzothiazol-2-ylmethoxy)-5-chloro-3-pyridinyl)-2-fluoro-5-methoxy-N-(methylsulfonyl)benzamide] |  |  | > 3000 nM | 34.9 nM |
| Cc1cc(C(=O)NS(C)(=O)=O)c(F)cc1-c1cnc(Oc2ccc(F)c3c2CCC3)c(Cl)c1 [Example 672, 4-(5-chloro-6-((7-fluoro-2,3-dihydro-1H-inden-4-yl)oxy)-3-pyridinyl)-2-fluoro-5-methyl-N-(methylsulfonyl)benzamide] | > 10000 nM | 67.5 nM |  |  |
| Cc1cc(C(=O)NS(C)(=O)=O)c(F)cc1-c1cnc(N2CCC[C@@H]2c2cccc(Cl)c2)c(Cl)c1 [Example 656, 4-(5-chloro-6-((2R)-2-(3-chlorophenyl)-1-pyrrolidinyl)-3-pyridinyl)-2-fluoro-5-methyl-N-(methylsulfonyl)benzamide, 4-(5-chloro-6-((2S)-2-(3-chlorophenyl)-1-pyrrolidinyl)-3-pyridinyl)-2-fluoro-5-methyl-N-(methylsulfonyl)benzamide] | > 3000 nM | 73.8 nM |  |  |
| Cc1cc(C(=O)NS(=O)(=O)C2CC2)c(F)cc1-c1cnc(Oc2c(C)cc(Cl)cc2Cl)c(Cl)c1 [Example 801, 4-(5-chloro-6-(2,4-dichloro-6-methylphenoxy)-3-pyridinyl)-N-(cyclopropylsulfonyl)-2-fluoro-5-methylbenzamide] |  |  | 485 nM | 56.2 nM |
| Cc1cc(C(=O)NS(C)(=O)=O)c(F)cc1-c1cnc(Oc2ccc(Cl)cc2Cl)c(Cl)c1 [Example 665, 4-(5-chloro-6-(2,4-dichlorophenoxy)-3-pyridinyl)-2-fluoro-5-methyl-N-(methylsulfonyl)benzamide] | 4680 nM | 35.7 nM |  |  |
| Cc1cc(Cl)c(Oc2ncc(-c3cc(F)c(C(=O)NS(C)(=O)=O)cc3C)cc2Cl)cc1C [Example 632, 4-(5-chloro-6-(2-chloro-4,5-dimethylphenoxy)-3-pyridinyl)-2-fluoro-5-methyl-N-(methylsulfonyl)benzamide] | > 3000 nM | 81.5 nM |  |  |
| COc1cc(C(=O)NS(C)(=O)=O)c(F)cc1-c1cnc(Oc2cc(Cl)ccc2C)c(Cl)c1 [Example 699, 4-(5-chloro-6-(5-chloro-2-methylphenoxy)-3-pyridinyl)-2-fluoro-5-methoxy-N-(methylsulfonyl)benzamide] | > 3000 nM | 55.1 nM |  |  |
| Cc1cc(C(=O)NS(C)(=O)=O)c(F)cc1-c1cnc(Oc2c(F)cc(F)cc2F)c(Cl)c1 [Example 622, 4-(5-chloro-6-(2,4,6-trifluorophenoxy)-3-pyridinyl)-2-fluoro-5-methyl-N-(methylsulfonyl)benzamide] | > 3000 nM | 87.3 nM |  |  |
| Cc1cc(C(=O)NS(C)(=O)=O)c(F)cc1-c1cnc(Oc2cccc(Cl)c2F)c(Cl)c1 [Example 619, 4-(5-chloro-6-(3-chloro-2-fluorophenoxy)-3-pyridinyl)-2-fluoro-5-methyl-N-(methylsulfonyl)benzamide] | > 3000 nM | 93.7 nM |  |  |
| Cc1cc(C(=O)NS(C)(=O)=O)c(F)cc1-c1cnc(Oc2c(C)cc(Cl)cc2Cl)c(Cl)c1 [Example 628, 4-(5-chloro-6-(2,4-dichloro-6-methylphenoxy)-3-pyridinyl)-2-fluoro-5-methyl-N-(methylsulfonyl)benzamide] | 2190 nM | 56 nM |  |  |
| Cc1cc(C(=O)NS(C)(=O)=O)c(F)cc1-c1cnc(N2CCC[C@H]2c2ccccc2)c(Cl)c1 [Example 646, 4-(5-chloro-6-((2S)-2-phenyl-1-pyrrolidinyl)-3-pyridinyl)-2-fluoro-5-methyl-N-(methylsulfonyl)benzamide] | > 3000 nM | 99.9 nM |  |  |
| Cc1cc(Cl)ccc1COc1ncc(-c2cc(F)c(C(=O)NS(C)(=O)=O)cc2C)cc1Cl [Example 681, 4-(5-chloro-6-((4-chloro-2-methylbenzyl)oxy)-3-pyridinyl)-2-fluoro-5-methyl-N-(methylsulfonyl)benzamide] | > 4900 nM | 98.6 nM |  |  |
| Cc1cc(C(=O)NS(C)(=O)=O)ccc1-c1cnc(Oc2c(C)cc(Cl)cc2Cl)c(Cl)c1 [Example 775, 4-(5-Chloro-6-(2,4-Dichloro-6-Methylphenoxy)-3-Pyridinyl)-3-Methyl-N-(Methyl Sulfonyl)Benzamide] |  |  | > 4900 nM | 78.2 nM |
| COc1cc(C(=O)NS(C)(=O)=O)ccc1-c1cnc(Oc2c(C)cc(Cl)cc2Cl)c(C#N)c1 [Example 689, 4-(5-cyano-6-(2,4-dichloro-6-methylphenoxy)-3-pyridinyl)-3-methoxy-N-(methylsulfonyl)benzamide] | 1000 nM | 28.4 nM |  |  |
| CS(=O)(=O)NC(=O)c1cc(Cl)c(-c2cnc(Oc3cc(F)ccc3F)c(Cl)c2)cc1F [Example 597, 5-chloro-4-(5-chloro-6-(2,5-difluorophenoxy)-3-pyridinyl)-2-fluoro-N-(methylsulfonyl)benzamide] | 5390 nM | 69.8 nM |  |  |
